From PMC6417734 (PLoS ONE, 2019)
Where “and” joins values, the source holds several entries; their conditions need not be identical. Identical values can stand only once. Like-named read-outs stand apart in the source and are kept apart here.

What was measured:
[1] = Oral pharmacokinetic study in rats (plasma, UPHILIC-MS/MS, non-compartmental analysis); type: in vivo, wistar albino rats; details: for Kel: in h-1 (unit assumed); for AUClast / AUCtot: in ng·h/mL; for thalf: in h (unit assumed)
Description: Six healthy rats weighing between 180–220 g were received and maintained under standard laboratory conditions before the experiments. […] Blood samples (approx.0.5 ml) were collected at 0, 0.33, 0.66, 1, 2, 3, 5, 8, 12 and 24 h in lithium heparinized tubes after dosing. Plasma was separated by centrifugation for 8 min at 4000 rpm and stored at −80 °C till further analysis.
The non-compartmental model was used to calculate the pharmacokinetic parameters using WinNonlin software (Pharsight Co., Mountain View, CA, USA). The maximum plasma concentration (Cmax), time to achieve this (Tmax), area under curve zero to last and infinity (AUC0-24; AUC0-∞), half-life (T½), elimination rate constant (Kel) and mean residence time were measured. Statistical parameters like mean, standard deviation and % RSD were calculated by using MS-Excel 2013 (Microsoft).

[2] = Stability in spiked rat plasma under different storage conditions; type: physicochemical; details: for stability in spiked rat plasma, short term and long term storage: LQC and HQC, room temperature and -80 °C for 30 days, acceptance within ±15%; for stability of processed plasma samples in autosampler and after freeze-thaw cycles: autosampler for 24 h, three freeze-thaw cycles; for Processed samples (24 h) Accuracy (%): processed rat plasma samples, autosampler at 10 °C; for long term (1 month) Accuracy (%) / Short term (8 h) Accuracy (%) / Freeze/Thaw (3 cycle) Accuracy (%): spiked rat plasma; for long term (1 month) Accuracy (%): -80 °C for 30 days; for Short term (8 h) Accuracy (%): room temperature; for Freeze/Thaw (3 cycle) Accuracy (%): three cycle from -80 °C to room temperature
Description: The short-term (at room temperature for 8 h); post preparation (in autosampler at 10 °C for 24 h), freeze-thaw (three cycle from ─80 °C to room temperature) and long-term (─80 °C for 30 days) stabilities were determined. All stabilities results were measured against freshly spiked CCs and acceptance were limited to be within ±15%.

SUA levels = details: ALP dose of 300 mg/day; ref [10]–[12]; cited from earlier work
[3] = Mean of six rats (supplement), oral ALP 20 mg/kg and LES 15 mg/kg
[4] = Wistar albino, rat, plasma, po, 20 mg/kg, Mean line of six rats (supplement), oral ALP 20 mg/kg and LES 15 mg/kg, read-out: Tmax
[5] = Wistar albino, rat, plasma, po, 20 mg/kg, Mean of six rats (supplement), oral ALP 20 mg/kg and LES 15 mg/kg
[6] = Wistar albino, rat, plasma, po, 20 mg/kg, Mean of six rats (supplement), oral ALP 20 mg/kg and LES 15 mg/kg, read-out: AUClast
[7] = Wistar albino, rat, plasma, po, 20 mg/kg, Mean of six rats (supplement), oral ALP 20 mg/kg and LES 15 mg/kg, read-out: Cmax
[8] = Wistar albino, rat, plasma, po, 20 mg/kg, Mean of six rats (supplement), oral ALP 20 mg/kg and LES 15 mg/kg, read-out: MRT
[9] = Wistar albino, rat, plasma, po, 20 mg/kg, individual animal (rats R1-R6), oral ALP 20 mg/kg and LES 15 mg/kg
[10] = Wistar albino, rat, plasma, po, 20 mg/kg, individual animal (rats R1-R6), oral ALP 20 mg/kg and LES 15 mg/kg, read-out: AUClast
[11] = Wistar albino, rat, plasma, po, 20 mg/kg, individual animal (rats R1-R6), oral ALP 20 mg/kg and LES 15 mg/kg, read-out: Cmax
[12] = Wistar albino, rat, plasma, po, 20 mg/kg, individual animal (rats R1-R6), oral ALP 20 mg/kg and LES 15 mg/kg, read-out: MRT
[13] = Wistar albino, rat, plasma, po, 20 mg/kg, rats, oral ALP 20 mg/kg, read-out: Tmax
[14] = Wistar albino, rat, plasma, po, rat plasma, oral co-administration of ALP 20 mg/kg and LES 15 mg/kg, mean ± SD, six rats, read-out: Cmax
[15] = Wistar albino, rat, plasma, po, rat plasma, oral co-administration of ALP 20 mg/kg and LES 15 mg/kg, mean ± SD, read-out: AUC0-24
[16] = Wistar albino, rat, plasma, po, rat plasma, oral co-administration of ALP 20 mg/kg and LES 15 mg/kg, mean ± SD, read-out: MRT
[17] = Wistar albino, rat, plasma, po, rat plasma, oral co-administration of ALP 20 mg/kg and LES 15 mg/kg, six rats, read-out: Tmax
[18] = individual animal (rats R1-R6), oral ALP 20 mg/kg and LES 15 mg/kg, in h
[19] = individual animal (rats R1-R6), oral ALP 20 mg/kg and LES 15 mg/kg
[20] = individual animal (rats R1-R6), oral ALP 20 mg/kg and LES 15 mg/kg, in ng/mL
[21] = HQC nominal value (ALP 7000, OXP 10000, LES 8000 ng/mL)
[22] = LQC nominal value (ALP 70, OXP 100, LES 80 ng/mL)

Kel [1, 3]	Tmax [1, 4] [h]	Cmax [1, 14] [ng/mL]	AUC(0-t) [1, 15] [ng·h/mL]	MRT [1, 16] [h]	Tmax [1, 17] [h]	stability in spiked rat plasma, short term and long term storage [2]	stability of processed plasma samples in autosampler and after freeze-thaw cycles [2]	Processed samples (24 h) Accuracy (%) [2, 21] [%]	Processed samples (24 h) Accuracy (%) [2, 22] [%]	long term (1 month) Accuracy (%) [2, 21] [%]	Short term (8 h) Accuracy (%) [2, 21] [%]	Freeze/Thaw (3 cycle) Accuracy (%) [2, 21] [%]	long term (1 month) Accuracy (%) [2, 22] [%]	Short term (8 h) Accuracy (%) [2, 22] [%]	Freeze/Thaw (3 cycle) Accuracy (%) [2, 22] [%]	SMILES	MRT [1, 18]	Cmax [1, 20]	AUClast [1, 19]	AUCtot [1, 19]	also measured
0.5391	0.66	2030 ± 509	3510 ± 571	1.98 ± 0.32	0.66	acceptable limits	stable	99.34	96.54	88.71	90.84	100.54	87.23	93.08	108.60	Oc1ncnc2[nH]ncc12 [ALP, Allopurinol]	1.607 and 2.233 and 2.477 and 1.777 and 1.801	1667.45 and 2378.66 and 2694.26 and 2321.62 and 1731.2	2635.21 and 3641.95 and 4404.97 and 3470.35 and 3598.67	2743.88 and 3774.36 and 4653.35 and 3656.48 and 3742.26	AUC [1, 5]: 3660 ng·h/mL; AUC(0-t) [1, 6]: 3510 ng·h/mL; Cmax [1, 7]: 2030 ng/mL; MRT [1, 8]: 1.99 h; AUC [1, 9]: 3390 ng·h/mL; AUC(0-t) [1, 10]: 3320 ng·h/mL; Cmax [1, 11]: 1380 ng/mL; MRT [1, 12]: 2.04 h; Tmax ([1]; Wistar albino, rat, plasma, po, 20 mg/kg, individual animal (rats R1-R6), oral ALP 20 mg/kg and LES 15 mg/kg, read-out: Tmax): 0.33 h; Tmax [1, 13]: 0.66 h; Kel [1, 19]: 0.3461; detectability in plasma after administration ([1]; rats, post administration of 20 mg/kg of ALP): undetectable after 8 h; patients who do not achieve sustained reductions in SUA levels (< 6 mg/dL) (SUA levels): > 50%
0.09441		8270 ± 191	65910 ± 139	12.4 ± 4.51	1.5	acceptable limits	stable	97.01	112.54	88.59	95.12	90.13	89.81	91.26	94.8	O=C(O)CSc1nnc(Br)n1-c1ccc(C2CC2)c2ccccc12 [LES, Lesinurad]	20.1145 and 8.709 and 12.6844 and 8.471 and 9.848 and 14.9899	5494.01 and 8320.88 and 6878.96 and 11031.4 and 8808.81 and 9091.69	64836.4 and 61847.4 and 85561.6 and 56410.3 and 78552.6	68738 and 73776.1 and 90181.7 and 60657.3 and 99665.6	thalf [1, 3]: 8.497; Tmax ([1]; Wistar albino, rat, plasma, po, 15 mg/kg, Mean line of six rats (supplement), oral ALP 20 mg/kg and LES 15 mg/kg, read-out: Tmax): 1.5 h; AUC ([1]; Wistar albino, rat, plasma, po, 15 mg/kg, Mean of six rats (supplement), oral ALP 20 mg/kg and LES 15 mg/kg): 77100 ng·h/mL; AUC(0-t) ([1]; Wistar albino, rat, plasma, po, 15 mg/kg, Mean of six rats (supplement), oral ALP 20 mg/kg and LES 15 mg/kg, read-out: AUClast): 65900 ng·h/mL; Cmax ([1]; Wistar albino, rat, plasma, po, 15 mg/kg, Mean of six rats (supplement), oral ALP 20 mg/kg and LES 15 mg/kg, read-out: Cmax): 8270 ng/mL; MRT ([1]; Wistar albino, rat, plasma, po, 15 mg/kg, Mean of six rats (supplement), oral ALP 20 mg/kg and LES 15 mg/kg, read-out: MRT): 12.5 h; AUC ([1]; Wistar albino, rat, plasma, po, 15 mg/kg, individual animal (rats R1-R6), oral ALP 20 mg/kg and LES 15 mg/kg): 69800 ng·h/mL; AUC(0-t) ([1]; Wistar albino, rat, plasma, po, 15 mg/kg, individual animal (rats R1-R6), oral ALP 20 mg/kg and LES 15 mg/kg, read-out: AUClast): 48200 ng·h/mL; Tmax [1, 18]: 1 and 3 and 2 and 5 and 0.66; thalf [1, 19]: 13.589 and 5.574 and 9.1146 and 5.126 and 5.707 and 11.8685; Kel [1, 19]: 0.05101 and 0.1244 and 0.07605 and 0.1352 and 0.1214 and 0.0584; ratios of AUC (AUC0-24/ AUC0-∞) ([1]; rats, oral ALP 20 mg/kg and LES 15 mg/kg): ≥ 85%
0.1191	2	7500 ± 156	44800 ± 373	7.58 ± 1.52	2	acceptable limits	stable	102.65	104.72	91.04	95.12	92.67	92.43	96.85	102.55	O=c1[nH]c(=O)c2c[nH]nc2[nH]1 [OXP, oxypurinol]	6.956 and 5.837 and 6.059 and 8.731 and 9.5786	7192.39 and 10535.3 and 7573.56 and 6585.93 and 6831.19	49418.6 and 48647.7 and 44044.7 and 42639.7 and 44576.2	50759.5 and 50350.9 and 45393.1 and 45993.3 and 50026.1	AUC [1, 5]: 47400 ng·h/mL; AUC(0-t) [1, 6]: 44800 ng·h/mL; Cmax [1, 7]: 7500 ng/mL; MRT [1, 8]: 7.58 h; AUC [1, 9]: 41900 ng·h/mL; AUC(0-t) [1, 10]: 39500 ng·h/mL; Cmax [1, 11]: 6250 ng/mL; MRT [1, 12]: 8.33 h; Tmax [1, 13]: 2 h; Tmax [1, 18]: 3 and 0.66 and 1
